Columns and labels:
[1] = test system: p53; experiment: Immunoblot of p53 protein in RKO cells; assay type: cell-based, human; conditions: 10 μg/ml, 16 and 24 h
Experimental: (§1) Accumulation of p53 protein, and the p53-regulated cdk inhibitor p21WAF1/CIP1, were assayed by immunoblotting in a parallel time course after inhibition of FAS (FIG. 4). Cells were treated with cerulenin (10 μg/ml) (A) or C-75 (10 μg/ml) (B) for the stated exposure times, and analyzed by immunoblotting for p53 and p21 protein content, with actin as an internal control. One million cells per 60-mm plate were treated with 10 μg/ml cerulenin or C-75 in duplicate for the indicated time intervals; control cells received equivalent amounts of DMSO. After drug treatment, cells were lysed with 200 μl Laemmli sample buffer and boiled. Ten μl of each lysate per lane was separated by SDS-PAGE, transferred to nitrocellulose, and exposed to antibodies against p53 (Pab1801, Oncogene Research Products), p21 (6B6, PharMingen) or actin (I-19, Santa Cruz), followed by horseradish peroxidase-conjugated goat anti-mouse or rabbit anti-goat antibody (Pierce), enhanced chemiluminescence (Amersham) and autoradiography.

[2] = test system: RKO-p53 cells; experiment: Apoptosis by merocyanine 540 multiparameter flow cytometry; assay type: cell-based, human
Text: The effect of p53 function on survival after FAS inhibition was investigated by comparing two pairs of isogenic cell lines with wild-type and altered p53 function. RKO cells were rendered p53-mutant by stable transfection with a dominant-negative mutant p53 gene (RKO-p53); the human breast carcinoma cell line MCF7 was rendered p53-deficient by constitutive expression of the human papilloma virus 16 E6 gene (MCF7-E6) (Fan, S., Smith, M. L., Rivet, D. J., 2nd, Duba, D., Zhan, Q., Kohn, K. W., Fornace, A. J., Jr., and PM, O. C., “Disruption of p53 Function Sensitizes Breast Cancer MCF-7 Cells to Cisplatin and Pentoxifylline,” Cancer Research, 55:1649-1654, (1995)).
Cells were exposed to cerulenin or C-75 for the indicated doses and time intervals, then detached from plastic with trypsin for flow cytometry analysis. Apoptosis was measured by multiparameter flow cytometry using a FACStar^Plus flow cytometer equipped with argon and krypton lasers (Becton Dickinson). […] Merocyanine 540-positive cells were identified using 488-nm excitation from an argon laser and a 575-nm DF26 bandpass filter for collection of events with increased red fluorescence. Data were collected and analyzed using CellQuest software (Becton Dickinson). […]

[3] = test system: MCF7 breast cancer cells; experiment: Alkaline single cell gel electrophoresis (comet assay), MCF7; assay type: cell-based, human; conditions: 3 h, doses bracketing 75% survival at 24 h
Text: This assay detects DNA strand breaks, and a spectrum of alkali-labile DNA damage at low levels (Singh, N. P., McCoy, M. T., Tice, R. R., and Schneider, E. L., “A simple Technique for Quantitation of Low Levels of DNA Damage in Individual Cells,” Experimental Cell Research, 175:184-191, (1988); Plappert, U., Raddatz, K., Roth, S., and Fliedner, T. M., “DNA-Damage Detection in Man After Radiation Exposure—the Comet Assay—Its Possible Application for Human Biomonitoring,” Stem Cells, 13 Supplement 1:215-222, (1995)).
Cerulenin- or C-75-treated MCF7 breast carcinoma cells were subjected to alkaline single cell gel electrophoresis (comet assay). MCF7 breast cancer cells were treated with cerulenin or C-75 for 3 h at doses bracketing 75% survival at 24 h. All experiments were repeated three times and duplicate slides from each experiment were prepared and scored. […] Neutralized, dehydrated slides were stained with ethidium bromide (2 ng/ml) and comets scored under a Nikon fluorescence microscope (with TRITC filters) coupled to a KOMET 4.0 software (Kinetic Imaging Ltd).
Olive tail moment indicates electrophoretic mobility of DNA induced by DNA damage. […] One hundred consecutive cells were scored from the middle of each slide, and the means calculated. The final results were expressed as the (mean of the individual means)±(standard deviation of the means). […]

[4] = test system: RKO cells; experiment: BrdU pulse/chase cell cycle progression by laser scanning cytometry; assay type: cell-based, human; conditions: 10 μg/ml, chase 4-24 h
Experimental: A similar experiment measured cell cycle progression by pulse/chase labeling with bromodeoxyuridine (BrdU, FIG. 2). The BrdU-positive S-phase fraction at time zero progresses through the cell cycle at later time points. B. The progress of BrdU pulse-labeled RKO cells through the cell cycle was monitored over 24 h without inhibition of FAS, or during exposure to cerulenin (10 μg/ml) or C-75 (10 μg/ml).
Dual-parameter detection of Bromodeoxyuridine (BrdU) labeling and DNA content was performed using a laser scanning cytometer (Compucyte Corp.). Cell cultures were pulse-labeled for 20 min with 10 μM BrdU, and chased for the indicated times in the absence or presence of drug, then detached from plastic with trypsin, ethanol-fixed and applied to glass slides. Cells were subjected to standard heat-induced epitope retrieval (DAKO) before staining with anti-BrdU antibody (DAKO) and FITC-conjugated goat anti-mouse antibody (CALTAG, DAKO Autostainer™). DNA content was assessed after staining with 0.5% propidium iodide. Data were collected and analyzed using WinCyte software (Compucyte Corp.).
A 20-min exposure of proliferating cells to BrdU labeled the S-phase population at time zero. Chase samples were collected at 4, 8, 16 and 24 h. In control cultures (FIG. 2A), the BrdU-labeled population progressed through G2/M, first reappearing in the G1 population in the 8 h chase sample. […]

[5] = test system: cyclin A-associated kinase activity; experiment: Immunocomplex-kinase assay after drug exposure of RKO cells, cyclin A; assay type: cell-based, human; conditions: 10 μg/ml, later time points (16 and 24 h)
Experimental: The effect of FAS inhibitors on the activity of cyclin/cdk complexes in RKO cells was determined in a time course analysis. After RKO cells were exposed to FAS inhibitors for the indicated time periods, cyclin A- and cyclin B 1-associated kinase activities were determined by an immunocomplex-kinase assay.
Five×10^6 RKO cells per 100-mm plate were treated with 10 μg/ml cerulenin or C-75 for the indicated time intervals. The control cells received equivalent amounts of DMSO. After drug treatment, the plates were washed once and lysed with immunoprecipitation (IP) buffer (150 mM Tris, pH 7.4, 150 mM NaCl, 1% Triton X-100, 0.5% NP-40, 1 mM ethyleneglyco-bis-tetraacetic acid, 0.2 mM sodium vanadate, and 0.2 mM phenylmethylsulfonyl fluoride). Protein concentration was measured using the BCA Protein Assay Kit (Pierce). One hundred μg of protein from each sample was incubated at 4° C. for 1 h with 1 μg of primary antibody (anti-human cyclin A rabbit polyclonal antibody or anti-human cyclin B 1 monoclonal antibody, Santa Cruz) and then overnight after addition of Protein A or protein G-Sepharose (Santa Cruz). […] Samples were resolved by electrophoresis through 12% SDS-polyacrylamide gels and quantitated on a Storm 820 system (Molecular Dynamics). […]

[6] = test system: RKO colon carcinoma cells; experiment: DNA content of treated RKO cells by flow cytometry (cell cycle distribution); assay type: cell-based, human; conditions: 10 μg/ml; for cell cycle distribution (DNA content), early time points: 5 and 8 h
Experimental: Cells were cultured in DMEM with 10% fetal bovine serum (Hyclone). Cells were screened periodically for mycoplasma contamination (Gen-probe). Cerulenin (Sigma) C-75 and TOFA, dissolved in DMSO, were added from 5 mg/ml stock solutions; the final concentration of DMSO in cultures was at or below 0.2%. Cells were exposed to cerulenin or C-75 for the indicated doses and time intervals, then detached from plastic with trypsin for flow cytometry analysis. DNA content was measured by multiparameter flow cytometry using a FACStar^Plus flow cytometer equipped with argon and krypton lasers (Becton Dickinson).

[7] = test system: p21WAF1/CIP1; experiment: Immunoblot of p21 protein in RKO cells; assay type: cell-based, human; conditions: 10 μg/ml, 16 and 24 h
Experimental: as §1

[8] = test system: fatty acid synthesis; conditions: cited from earlier work

| Compound | p53 protein level [1] | apoptosis (MC540) in p53-deficient cells compared to parent line ([2]; RKO-p53 vs parent RKO, 24 h exposure, 5 or 10 μg/ml) | DNA damage, olive tail moment [3] | cell cycle progression of BrdU pulse-labeled cells [4] | kinase activity associated with immunoprecipitated cyclin A complexes, later time points [5] | cell cycle distribution (DNA content), early time points [6] | cell cycle distribution (DNA content), late time points ([6]; 16 and 24 h) | p21 protein level [7] | inhibitory effects on fatty acid synthesis [8] | effect of pretreatment on FAS inhibitor mediated apoptosis ([2]; RKO-p53 cells, TOFA pretreatment) |
| --- | --- | --- | --- | --- | --- | --- | --- | --- | --- | --- |
| C/C=C/C/C=C/CCC(=O)[C@H]1O[C@H]1C(N)=O [cerulenin, (2R, 3S)-2,3-epoxy-4-oxo-7,10-trans,trans-dodecadienamide] | induced accumulation | large, dose-dependent increase in apoptosis | Neither cerulenin nor C-75 induced olive tail moments over background values | substantial delays in cell cycle progression | increased moderately | redistribution of cells into S phase and G2/M | S-phase fraction decreased substantially, with a redistribution of cells into G1 and G2/M | induced accumulation |  |  |
| C=C1C(=O)OC(CCCCCCCC)C1C(=O)O (stereo not shown) [C-75] | induced accumulation |  | Neither cerulenin nor C-75 induced olive tail moments over background values | exhibited a similar response | increased moderately | This effect was characteristic of both cerulenin and C-75 treatment |  | induced accumulation | comparable to those seen with cerulenin |  |
| CCCCCCCCCCCCCCOc1ccc(C(=O)O)o1 [TOFA, 5-(tetradecyloxy)-2-furoic acid] |  |  |  |  |  |  |  |  |  | did rescue FAS inhibitor mediated apoptosis |
